# Assays:
# [1] = system: Col1a1; test: Col1a1 gene expression (RT-qPCR) in primary human hepatic stellate cells stimulated with TGFβ1; type: cell-based; conditions: for Col1a1 Fold Expression Relative to Control, Mean: single amino acid
# [2] = system: Procollagen Iα1; test: Procollagen Iα1 secretion (ELISA) in primary human hepatic stellate cells stimulated with TGFβ1; type: cell-based; conditions: for Procollagen lα1 Secretion (Fold Change of 1X), Mean: first donor; for Procollagen lα1 Secretion (Fold Change of 1X), Mean / Procollagen Iα1 Secretion, Mean: single amino acid
# [3] = system: MCP1/CCL2; test: MCP1/CCL2 secretion by ELISA in primary human hepatocytes with FFA + TNFα; type: cell-based
# [4] = system: IL-6; test: IL-6 cytokine secretion in primary human hepatic stellate cells stimulated with TNFα; type: cell-based; conditions: for Fold Change IL-6 Secretion Normalized Per Cell: Valine 234 μM (plasma level, reference)
# [5] = system: IL-6; test: LPS-induced IL-6 secretion in primary human monocyte-derived macrophages; conditions: LPS, baseline subtracted values
# [6] = system: TNF-α; test: LPS-induced TNF-α secretion in primary human monocyte-derived macrophages; conditions: 0.15 ng/mL LPS
# [7] = system: MCP-1; test: MCP-1 chemokine secretion in primary human hepatic stellate cells stimulated with TNFα; type: cell-based
# [8] = hepatic stellate cells, three donors
# [9] = hepatic stellate cells, two donors
# [10] = Donor 2, Conc. 234 μM (baseline)
smiles,measurement,setting,value
"CC(C)[C@H](N)C(=O)O [Valine, L-Valine]","Col1a1 Fold Expression Relative to Control, Mean","[1]; first donor, 234 μM (baseline)",1.00 fold
same,"Col1a1 Fold Expression Relative to Control, Mean","[1]; first donor, 23420 μM",1.00 fold
same,Col1a1 gene expression (summary in words),[1]; [8],did not significantly change Col1a1 gene expression in any donor
same,"Col1a1 Fold Expression Relative to Control, Mean","[1]; second donor (Table 27), 234 μM (baseline)",1.00 fold
same,"Col1a1 Fold Expression Relative to Control, Mean","[1]; second donor (Table 27), 4684 μM",1.05 fold
same,"Col1a1 Fold Expression Relative to Control, Mean","[1]; second donor (Table 27), 11710 μM",0.98 fold
same,"Col1a1 Fold Expression Relative to Control, Mean","[1]; second donor (Table 27), 23420 μM",1.05 fold
same,"Col1a1 Fold Expression Relative to Control, Mean","[1]; second donor (Table 29), 4684 μM",1.22 fold
same,"Col1a1 Fold Expression Relative to Control, Mean","[1]; second donor (Table 29), 23420 μM",1.13 fold
same,"Procollagen lα1 Secretion (Fold Change of 1X), Mean",[2]; 4684 μM,1.1203 fold
same,"Procollagen lα1 Secretion (Fold Change of 1X), Mean",[2]; 11710 μM,1.2069 fold
same,"Procollagen lα1 Secretion (Fold Change of 1X), Mean",[2]; 23420 μM,1.2139 fold
same,procollagen Iα1 secretion (summary in words),[2]; [8],significantly increased procollagen Iα1 secretion in only one of two donors
same,"Procollagen Iα1 Secretion, Mean","[2]; second donor, Conc. 234 μM (baseline)",1.0000 Fold Change of 1×
same,"Procollagen Iα1 Secretion, Mean","[2]; second donor, Conc. 4684 μM",1.2865 Fold Change of 1×
same,"Procollagen Iα1 Secretion, Mean","[2]; second donor, Conc. 11710 μM",1.2877 Fold Change of 1×
same,"Procollagen Iα1 Secretion, Mean","[2]; second donor, Conc. 23420 μM",1.3068 Fold Change of 1×
same,"Procollagen Iα1 Secretion, Mean","[2]; third donor, Conc. 234 μM (baseline)",1.0000 Fold Change of 1×
same,"Procollagen Iα1 Secretion, Mean","[2]; third donor, Conc. 4684 μM",1.0428 Fold Change of 1×
same,"Procollagen Iα1 Secretion, Mean","[2]; third donor, Conc. 11710 μM",1.0498 Fold Change of 1×
same,"Procollagen Iα1 Secretion, Mean","[2]; third donor, Conc. 23420 μM",1.1139 Fold Change of 1×
same,"MCP1 expression relative to Control, Mean","[3]; Donor 1, Conc. 234 μM",−2.4E−15
same,"MCP1 expression relative to Control, Mean","[3]; Donor 1, Conc. 4684 μM",23.6867
same,"MCP1 expression relative to Control, Mean","[3]; Donor 1, Conc. 11710 μM",77.73
same,"MCP1 expression relative to Control, Mean","[3]; Donor 1, Conc. 23420 μM",14.17
same,"MCP1 expression relative to Control, Mean","[3]; Donor 2, Conc. 234 μM",−1.4E−14
same,"MCP1 expression relative to Control, Mean","[3]; Donor 2, Conc. 4684 μM",10.79
same,"MCP1 expression relative to Control, Mean","[3]; Donor 2, Conc. 11710 μM",38.25
same,"MCP1 expression relative to Control, Mean","[3]; Donor 2, Conc. 23420 μM",−30.7921
same,MCP1/CCL2 secretion (summary in words),"[3]; primary human hepatocytes, two healthy donors",did not have an effect on MCP1/CCL2 secretion
same,Fold Change IL-6 Secretion Normalized Per Cell,[4]; donor 1,1.0000 fold change
same,Fold Change IL-6 Secretion Normalized Per Cell,[4]; donor 2,1.0000 fold change
same,IL-6 secretion (summary in words),[4]; [9],no significant effect on IL-6 secretion
same,"IL-6 Measurements, Mean","[5]; Donor 1, Conc. 234 μM (baseline)",0
same,"IL-6 Measurements, Mean",[5]; [10],−4.7E−15
same,"IL-6 Measurements, Mean","[5]; Donor 2, Conc. 4684 μM",−4.528
same,"IL-6 Measurements, Mean","[5]; Donor 2, Conc. 11710 μM",−1.196
same,"IL-6 Measurements, Mean","[5]; Donor 2, Conc. 23420 μM",4.396
same,TNF-α Measurements Mean (baseline subtracted),"[6]; Donor 1, Conc. 4684 μM",−40.37
same,TNF-α Measurements Mean (baseline subtracted),"[6]; Donor 1, Conc. 11710 μM",−41.77
same,TNF-α Measurements Mean (baseline subtracted),"[6]; Donor 1, Conc. 23420 μM",−14.98
same,TNF-α Measurements Mean (baseline subtracted),[6]; [10],−4.7E−15
same,TNF-α Measurements Mean (baseline subtracted),"[6]; Donor 2, Conc. 4684 μM",−0.00221
same,TNF-α Measurements Mean (baseline subtracted),"[6]; Donor 2, Conc. 11710 μM",−0.835
same,TNF-α Measurements Mean (baseline subtracted),"[6]; Donor 2, Conc. 23420 μM",−1.251
same,TNF-α Measurements Mean (baseline subtracted),"[6]; Donor 3, Conc. 234 μM (baseline)",−2.4E−15
same,TNF-α Measurements Mean (baseline subtracted),"[6]; Donor 3, Conc. 4684 μM",0.126
same,TNF-α Measurements Mean (baseline subtracted),"[6]; Donor 3, Conc. 11710 μM",−2.599
same,TNF-α Measurements Mean (baseline subtracted),"[6]; Donor 3, Conc. 23420 μM",3.688
same,"Fold Change MCP1 Secretion Normalized Per Cell, Mean","[7]; donor 3, Conc. 234 μM",1.0000 Fold Change
same,Fold Change MCP1 Secretion Normalized Per Cell,"[7]; donor 4, Valine 234 μM (plasma level, reference)",1.0000 fold change
same,MCP-1 secretion (summary in words),[7]; [9],no significant impact on MCP-1 secretion

# Source: patent publication US11737999B2, “Amino acid compositions and methods for the treatment of post-acute sequelae of COVID-19” (AXCELLA HEALTH INC., priority 2021, dated 2023)
